Test results reported in US10303923B1, “Quantitation of NETosis using image analysis” (The University of North Carolina at Chapel Hill, priority 2018, dated 2019).
Entries after “also recorded” stand apart in the source; their conditions may differ. Read-outs that look alike come from different tables or passages of the source.

What was measured:
[1] = system: neutrophils from SCD patients; assay: NETosis quantitation by CNN image analysis in neutrophils from SCD patients at steady-state; assay type: cell-based, human; settings: SCD patients at steady-state (n=7), 2 hours treatment, two-way ANOVA
Source text: We next applied this assay to an inflammatory disease that has been suspected of being influenced by NETosis; patients with sickle cell disease (SCD) suffer chronic inflammation due to recurrent ischemia/reperfusion injuries and are hypercoagulable. The hypercoagulability is thought to be due to at least in part to circulating NETs similar to other inflammatory diseases. Soluble components presumably from NETs (DNA and nucleosomes) are detectible in plasma from both SCD patients and humanized SCD mice^11, 12. Furthermore, neutrophils from healthy individuals exposed to plasma from SCD patients causes NET generation. Because SCD neutrophils function at a reduced capacity for oxidative burst and produce less ROS than non-SCD neutrophils, we asked whether the ROS-dependent NETosis pathway is affected^13-15. Only patients at steady-state were included in the study. […] Reduction of neutrophils' oxidative burst capacity also occurs in conditions such as chronic granulomatous disease (CGD), and results in reduced NETosis^16. The divergence of our results from those previously published are possibly due to our observation of NETosis in neutrophils directly without the use of a surrogate NETosis biomarker.
The same conditions for cell isolation and treatment were used for neutrophils from SCD patients at steady-state (n=7), and the results are shown in graphs 206 and 208. […]

[2] = system: Human neutrophils from healthy volunteers; assay: NETosis quantitation by CNN image analysis in adherent neutrophils from healthy volunteers; assay type: cell-based; settings: read-out: EC50 (concentration inducing 50% of neutrophils to undergo NETosis)
Source text: This specification describes an assay for the assessment of 1) the EC50 of NETotic agonists in adherent human neutrophils and 2) the NETosis mechanism specific to these agonists. Neutrophils were isolated from peripheral blood of healthy volunteers and allowed to adhere to 96-well plates before stimulation with different concentrations of agonists. We established our assay with two widely used agonists, PMA, a PKC activator and A23187, a Ca+2 ionophore. NETosis data were acquired using the automated BD Pathway 855 Bio-imaging Systems. An image processing algorithm was created to distinguish two populations related to neutrophil nuclear size, intensity and texture. Our assay is the first to describe a semi-automated imaging and analysis method for the study of NETosis and is a positive step towards standardizing the quantitation of NETosis in isolated cells. This assay has potential applications in screening novel pharmaceuticals and in analyzing cells from patients with various diseases.
Adherent neutrophils were treated for 2 hours with either agonist or DMSO vehicle. DMSO treatment alone causes neutrophil NETosis reaching a maximum response of 30% with 0.16% DMSO. The resulting NETotic nuclei are visually indistinguishable from those observed with PMA- or A23187-treatments as shown graph 204. DMSO is the recommended solvent for both PMA and A23187. […]

Compound | NETosis response of SCD neutrophils compared with non-SCD neutrophils [1] | EC50 ([2]; Homo sapiens, Neutrophil, n=8, 2 hours treatment, PADIV-dependent pathway) | EC50 ([2]; n=11, 2 hours treatment, ROS-dependent pathway)
CNc1ccc2oc(C[C@H]3O[C@@]4(CC[C@H]3C)O[C@H]([C@H](C)C(=O)c3ccc[nH]3)[C@H](C)C[C@H]4C)nc2c1C(=O)O [A23187, Calcimycin] | responded similarly; also recorded: little difference was observed between SCD and non-SCD | 900 nM | 
CCCCCCCCCCCCCC(=O)O[C@@H]1[C@@H](C)[C@@]2(O)[C@@H](C=C(CO)C[C@]3(O)C(=O)C(C)=C[C@@H]23)[C@@H]2C(C)(C)[C@]12OC(C)=O [PMA] | comparatively insensitive; also recorded: responded poorly |  | 2.1 nM
